The text below walks through data of US9890185B2, “Urea derivatives useful as kinase inhibitors” (Respivert Limited, priority 2013, dated 2018).

For one assay, the system named is PBMCs. The assay can be described thus: LPS-induced IL-8 release in PBMC cells (assay b). It is filed as cell-based, human. To be noted: Homo sapiens, PBMC; LPS-stimulated PBMCs; read-out: IC50 Values for Inhibition of Cytokine Release, PBMCs IL-8. The method, then: Peripheral blood mononuclear cells (PBMCs) from healthy subjects are separated from whole blood using a density gradient (Lymphoprep, Axis-Shield Healthcare). The PBMCs are seeded in 96 well plates and treated with compounds at the desired concentration for 2 hours before addition of 1 ng/mL LPS (Escherichia Coli 0111:B4 from Sigma Aldrich) for 24 hours under normal tissue culture conditions (37° C., 5% CO2). The supernatant is harvested for determination of IL-8 and TNFα concentrations by sandwich ELISA (Duo-set, R&D systems) and read on the fluorescence microplate reader (Varioskan® Flash, ThermoFisher Scientific). The concentration at 50% inhibition (IC50) of IL-8 and TNFα production is calculated from the dose response curve.

For another assay, the target named is GSK 3α (Homo sapiens (Human), UniProt P49840). The assay can be described thus: GSK 3α enzyme inhibition (FRET, Z-LYTE, Method 2). Type of assay: biochemical. As to conditions: read-out: IC50 Values for Enzyme Inhibition, GSK3α. The method, then:
The enzyme inhibitory activities of compounds disclosed herein are determined by FRET using synthetic peptides labelled with both donor and acceptor fluorophores (Z-LYTE, Invitrogen Ltd., Paisley, UK).
The following two assay variants can be used for determination of GSK 3α inhibition.
The inhibitory activities of compounds of the invention against the GSK 3α enzyme isoform (Invitrogen), are evaluated by determining the level of activation/phosphorylation of the target peptide. The GSK3-α protein (500 ng/mL, 2.5 μL) is mixed with the test compound (2.5 μL at either 4 μg/mL, 0.4 μg/mL, 0.04 μg/mL, or 0.004 μg/mL) for 2 hr at RT. The FRET peptide (8 μM, 2.5 μL), which is a phosphorylation target for GSK3α, and ATP (40 μM, 2.5 μL) are then added to the enzyme/compound mixture and the resulting mixture incubated for 1 hr. Development reagent (protease, 5 μL) is added for 1 hr prior to detection in a fluorescence microplate reader (Varioskan® Flash, ThermoFisher Scientific).
In all cases, the site-specific protease cleaves non-phosphorylated peptide only and eliminates the FRET signal. Phosphorylation levels of each reaction are calculated using the ratio of coumarin emission (donor) over fluorescein emission (acceptor), for which high ratios indicate high phosphorylation and low ratios indicate low phosphorylation levels. The percentage inhibition of each reaction is calculated relative to non-inhibited control and the 50% inhibitory concentration (IC50 value) is then calculated from the concentration-response curve.
This method follows the same steps as Method 1 above, but utilises a shorter period of mixing of the test compound (105 minutes instead of 2 hours) with the GSK3-α protein.

pIC50: −log10 of the molar value.

GSK 3α, sequence (P49840 whole entry): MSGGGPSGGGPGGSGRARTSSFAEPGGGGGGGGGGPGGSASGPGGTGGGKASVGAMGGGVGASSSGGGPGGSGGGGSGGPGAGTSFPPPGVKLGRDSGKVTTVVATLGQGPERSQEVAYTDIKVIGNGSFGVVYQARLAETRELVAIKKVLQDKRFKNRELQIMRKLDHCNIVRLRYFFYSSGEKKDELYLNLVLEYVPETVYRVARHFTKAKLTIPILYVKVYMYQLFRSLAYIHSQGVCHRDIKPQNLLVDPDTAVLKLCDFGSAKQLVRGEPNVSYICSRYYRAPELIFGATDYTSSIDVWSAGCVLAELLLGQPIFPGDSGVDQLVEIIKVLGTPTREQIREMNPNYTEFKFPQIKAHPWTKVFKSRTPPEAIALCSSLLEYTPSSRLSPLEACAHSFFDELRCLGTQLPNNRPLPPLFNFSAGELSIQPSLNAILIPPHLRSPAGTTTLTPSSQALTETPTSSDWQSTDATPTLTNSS

Regarding `COCCOCCOCCNC(=O)c1cc(Nc2cc(Oc3ccc(NC(=O)Nc4cc(C(C)(C)C)cc(CC(N)=O)c4OC)c(Cl)c3Cl)ccn2)cc(OC)c1` [38(ag), 3-((4-(4-(3-(3-(2-Amino-2-oxoethyl)-5-(tert-butyl)-2-methoxyphenyl)ureido)-2,3-dichlorophenoxy)pyridin-2-yl)amino)-5-methoxy-N-(2-(2-(2-methoxyethoxy)ethoxy)ethyl)benzamide], the pIC50 in the assay with PBMCs was 9.22; on GSK 3α it was 6.43.
For the compound `COc1cc(Nc2nccc(Oc3ccc(NC(=O)Nc4cc(C(C)(C)C)cc(C(=O)NCCN5CCOCC5)c4OC)c4ccccc34)n2)cc(C(=O)NCCN2CCOCC2)c1` [38(ak), 5-(tert-Butyl)-2-methoxy-3-(3-(4-((2-((3-methoxy-5-((2-morpholinoethyl)carbamoyl)-phenyl)amino)pyrimidin-4-yl)oxy)naphthalen-1-yl)ureido)-N-(2-morpholinoethyl)benzamide], the pIC50 was 8.92 in the assay with PBMCs and 6.34 at GSK 3α.
As to `COc1cc(Nc2cc(Oc3ccc(NC(=O)Nc4cc(C(C)(C)C)cc(P(C)(C)=O)c4OC)c4ccccc34)ccn2)cc(C(=O)NCCN2CC[S+]([O-])CC2)c1` [38(am), 3-((4-((4-(3-(5-(tert-Butyl)-3-(dimethylphosphoryl)-2-methoxyphenyl)ureido)naphthalen-1-yl)oxy)pyridin-2-yl)amino)-5-methoxy-N-(2-(1-oxidothiomorpholino)ethyl)benzamide], the pIC50 with PBMCs is 8.21; at GSK 3α, 5.82.
The corresponding values for `COc1cc(Nc2cc(Oc3ccc(NC(=O)Nc4cc(C(C)(C)C)cc(S(C)(=O)=O)c4OC)c4ccccc34)ccn2)ccc1C(=O)NCCN1CCOCC1` [38(ap), 4-((4-((4-(3-(5-(tert-Butyl)-2-methoxy-3-(methylsulfonyl)phenyl)ureido)naphthalen-1-yl)oxy)pyridin-2-yl)amino)-2-methoxy-N-(2-morpholinoethyl)benzamide] are 8.35 and less than 5.24.
Taken in the same sequence, the figures for `COc1c(NC(=O)Nc2ccc(Oc3ccnc(Nc4ccccc4)c3)c3ccccc23)cc(C(C)(C)C)cc1[S+](C)[O-]` (centres unmarked) [38(b1), 1-(5-(tert-Butyl)-2-methoxy-3-(methylsulfinyl)phenyl)-3-(4-((2-(phenylamino)pyridin-4-yl)oxy)naphthalen-1-yl)urea] were 8.08 and less than 5.02.
Taken in the same sequence, the figures for `COc1cccc(Nc2cc(Oc3ccc(NC(=O)Nc4cc(C(C)(C)C)cc(CC(=O)N(C)C)c4OC)c4ccccc34)ccn2)c1` [38(i), 2-(5-(tert-Butyl)-2-methoxy-3-(3-(4-((2-((3-methoxyphenyl)amino)pyridin-4-yl)oxy)naphthalen-1-yl)ureido)phenyl)-N,N-dimethylacetamide] were 7.94 and less than 4.81.
Take `COc1cccc(Nc2cc(Oc3ccc(NC(=O)Nc4cc(C(C)(C)C)cc(CC(=O)N5CCOCC5)c4OC)c4ccccc34)ccn2)c1` [38(j), 1-(5-(tert-Butyl)-2-methoxy-3-(2-morpholino-2-oxoethyl)phenyl)-3-(4-((2-((3-methoxyphenyl)amino)pyridin-4-yl)oxy)naphthalen-1-yl)urea]: the negative logarithm of the IC50 (pIC50) is 7.90 with PBMCs and less than 4.84 on GSK 3α.
Consider `COc1c(CC(N)=O)cc(C(C)(C)C)cc1NC(=O)Nc1ccc(Oc2ccnc(Nc3ccccc3)c2)c(F)c1F` [38(l), 2-(5-(tert-Butyl)-3-(3-(2,3-difluoro-4-((2-(phenylamino)pyridin-4-yl)oxy)phenyl)ureido)-2-methoxyphenyl)acetamide], for which the pIC50 is 8.23 in the assay with PBMCs and 6.33 on GSK 3α.
In the case of `COc1c(CNC(C)=O)cc(C(C)(C)C)cc1NC(=O)Nc1ccc(Oc2ccnc(Nc3cc(C)cc(C)c3)c2)c2ccccc12` [38(p), N-(5-(tert-Butyl)-3-(3-(4-((2-((3,5-dimethylphenyl)amino)pyridin-4-yl)oxy)naphthalen-1-yl)ureido)-2-methoxybenzyl)acetamide], the pIC50 is 8.14 in the assay with PBMCs and less than 4.80 on GSK 3α.
Taken in the same sequence, the figures for `COCCOCCOCCNC(=O)c1cc(Nc2cc(Oc3ccc(NC(=O)Nc4cc(C(C)(C)C)cc(C[S+](C)[O-])c4OC)c4ccccc34)ccn2)cc(OC)c1` (centres unmarked) [38(z), 3-((4-((4-(3-(5-(tert-Butyl)-2-methoxy-3-((methylsulfinyl)methyl)phenyl)ureido)naphthalen-1-yl)oxy)pyridin-2-yl)amino)-5-methoxy-N-(2-(2-(2-methoxyethoxy)ethoxy)ethyl)benzamide] were 9.22 and 6.10.
Regarding `COc1cc(Nc2cc(Oc3ccc(NC(=O)Nc4cc(C(C)(C)C)cc(P(C)(C)=O)c4OC)c4ccccc34)ccn2)ccc1C(=O)N1CCN(C)CC1` [79(a), 1-(5-tert-Butyl-3-dimethylphosphoryl-2-methoxy-phenyl)-3-[4-[[2-[3-methoxy-4-(4-methylpiperazine-1-carbonyl)anilino]-4-pyridyl]oxy]-1-naphthyl]urea], the pIC50 was 8.29 in the assay on PBMCs and 6.32 at GSK 3α.
The corresponding values for `COc1cc(Nc2cc(Oc3ccc(NC(=O)Nc4cc(C(C)(C)C)cc(P(C)(C)=O)c4OC)c4ccccc34)ccn2)ccc1C(=O)NC1CCN(C)CC1` [79(b), 4-[[4-[[4-[(5-tert-Butyl-3-dimethylphosphoryl-2-methoxy-phenyl)carbamoylamino]-1-naphthyl]oxy]-2-pyridyl]amino]-2-methoxy-N-(1-methyl-4-piperidyl)benzamide] are 8.13 and 5.73.
Regarding `COc1cc(Nc2cc(Oc3ccc(NC(=O)Nc4cc(C(C)(C)C)cc(P(C)(C)=O)c4OC)c4ccccc34)ccn2)ccc1C(=O)NCCN(C)C` [79(c), 4-[[4-[[4-[(5-tert-Butyl-3-dimethylphosphoryl-2-methoxy-phenyl)carbamoylamino]-1-naphthyl]oxy]-2-pyridyl]amino]-N-(2-dimethylaminoethyl)-2-methoxy-benzamide], the pIC50 is 8.15 in the assay on PBMCs and 5.75 at GSK 3α.
For `CNC(=O)c1cc(Nc2cc(Oc3ccc(NC(=O)Nc4cc(C(C)(C)C)cc(P(C)(C)=O)c4OC)c4ccccc34)ccn2)cc(OCCN2CCOCC2)c1` [79(f), 3-[[4-[[4-[(5-tert-Butyl-3-dimethylphosphoryl-2-methoxy-phenyl)carbamoylamino]-1-naphthyl]oxy]-2-pyridyl]amino]-N-methyl-5-(2-morpholinoethoxy)benzamide], the pIC50 in the assay on PBMCs is 8.41; at GSK 3α, 6.02.
For the compound `COCCOCCOCCOc1cc(Nc2cc(Oc3ccc(NC(=O)Nc4cc(C(C)(C)C)cc(P(C)(C)=O)c4OC)c4ccccc34)ncn2)cc(OC)c1` [Example 4, 1-(5-(tert-Butyl)-3-(dimethylphosphoryl)-2-methoxyphenyl)-3-(4-((6-((3-methoxy-5-(2-(2-(2-methoxyethoxy)ethoxy)ethoxy)phenyl)amino)pyrimidin-4-yl)oxy)naphthalen-1-yl)urea], the pIC50 in the assay with PBMCs was 8.25; on GSK 3α it was 5.39.
`COc1cc(Nc2nccc(Oc3ccc(NC(=O)Nc4cc(C(C)(C)C)cc(P(C)(C)=O)c4OC)c4ccccc34)n2)cc(P(C)(C)=O)c1` [Example 21, 1-(5-(tert-Butyl)-3-(dimethylphosphoryl)-2-methoxyphenyl)-3-(4-((2-((3-(dimethylphosphoryl)-5-methoxyphenyl)amino)pyrimidin-4-yl)oxy)naphthalen-1-yl)urea]: the pIC50 with PBMCs is 8.49; on GSK 3α, 6.55.
In the case of `COc1c(NC(=O)Nc2ccc(Oc3ccnc(Nc4cccc(N=S(C)(C)=O)c4)n3)c3ccccc23)cc(C(C)(C)C)cc1P(C)(C)=O` [Example 22, 1-(5-(tert-Butyl)-3-(dimethylphosphoryl)-2-methoxyphenyl)-3-(4-((2-((3-((dimethyl(oxo)-lambda-6-sulfanylidene)amino)phenyl)amino)pyrimidin-4-yl)oxy)naphthalen-1-yl)urea], the pIC50 in the assay with PBMCs was 8.48; at GSK 3α, 6.55.
On to `COc1c(NC(=O)Nc2ccc(Oc3ccnc(Nc4ccccc4)c3)c3ccccc23)cc(C(C)(C)C)cc1C(=O)NCCN1CCNCC1` [Example 23, 5-(tert-Butyl)-2-methoxy-3-(3-(4-((2-(phenylamino)pyridin-4-yl)oxy)naphthalen-1-yl)ureido)-N-(2-(piperazin-1-yl)ethyl)benzamide], for which the pIC50 in the assay with PBMCs was 8.17; at GSK 3α it was 5.10.
For `COc1c(NC(=O)Nc2ccc(Oc3ccnc(NC(=O)CN4C[C@@H](C)O[C@@H](C)C4)c3)c3ccccc23)cc(C(C)(C)C)cc1P(C)(C)=O` [Example 26, N-(4-((4-(3-(5-(tert-Butyl)-3-(dimethylphosphoryl)-2-methoxyphenyl)ureido)naphthalen-1-yl)oxy)pyridin-2-yl)-2-(cis-2,6-dimethylmorpholino)acetamide], the pIC50 is 8.66 in the assay on PBMCs and 6.60 at GSK 3α.

As a reminder, the pIC50 is −log10 of the IC50, conventionally taken in molar units.
